According to patent publication US7960556B2, “Thiadiazole derivatives for the treatment of neuro-degenerative diseases” (NV reMYND, priority 2006, dated 2011):
pEC50: −log10 of the molar value.

System: α-synuclein cytotoxicity in M17-SYNwt cells
Experiment: α-synuclein cytotoxicity assay: LDH leakage from paraquat-treated M17-SYNwt neuroblastoma cells;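 also: paraquat at 32 mM co-added with compound, 40 h exposure, LDH activity released into the culture medium measured, references are DMSO-only cells and paraquat plus DMSO cells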
Details: Homo sapiens, Neuroblastoma cell; for Emax: read-out: % Inhib.
Excerpt: An α-synuclein expression plasmid was constructed by sub-cloning the NcoI/XhoI fragment from 212T-SYN(WT) (Griffioen et al., Biochem Biophys Acta (2006) 1762(3):312-318) containing the cDNA of human wild type α-synuclein correspondingly into a standard mammalian expression vector pcDNA3.1 (Invitrogen) resulting into the plasmid pcDNA3.1-SYNwt. Plasmids pcDNA3.1 and pcDNA3.1-SYNwt were transfected to human neuroblastoma cells (ATCC No. CRL-2267) and independent clonal lines with the plasmids stably integrated into the genome were selected. […] Over-expression of α-synuclein in M17-SYNwt cell lines was confirmed by Western analysis.
Due to the high levels of α-synuclein M17-SYNwt cells are exquisitely sensitivity to paraquat, a well-known risk factor of synuclein-dependent neuronal degeneration. In degenerated or dead cells lactate dehydrogenase (LDH) is leaked out of the cells into the extracellular environment due to a loss of plasma-membrane integrity. This principle was used to determine cytotoxicity by quantifying the level of leaked LDH into the growth medium.
The detailed method for determining α-synuclein cytotoxicity was as follows: From appropriate precultures of M17 and M17-SYN cells were seeded at 50,000 cells/cm^2 in Optimem Reduced Serum without phenol red (available from InVitrogen, Cat. 31985-047) supplemented with 5% fetal calf serum, 1 mM sodium pyruvate, 1× non-essential amino acids, 500 μg/ml G418 0,5× antibiotic/antimycotic. After 3 hours of incubation at 37° C./5% CO2 paraquat was added to the cells (final concentration of 32 mM), together with the test compound and the cells were further incubated for 40 hours. Subsequently, LDH activity was determined using Promega Cytotox 96 Non-Radioactive cytotoxicity assay, (Cat. G1780) according the instructions of the supplier.
In these experiments, the control group consisted of M17-SYNwt cells treated with DMSO, the untreated paraquat group consisted of M17-SYNwt cells treated with paraquat and DMSO, and the treated paraquat group consisted of M17-SYNwt cells treated with paraquat and the test compound dissolved in DMSO.

| Compound | pEC50 | Emax [%] |
| --- | --- | --- |
| Cc1ccc(Cc2nsc(N3CCN(C(=O)c4ccccc4)CC3)n2)cc1 [compound 158, 1-benzoyl-4-[3-(4-methylbenzyl)-1,2,4-thiadiazol-5-yl]piperazine] | 5.68 | 57 |
| CCCCCCc1ccc(C(=O)N2CCN(c3nc(Cc4ccc(F)cc4)ns3)CC2)cc1 [compound 121, 1-(4-hexylbenzoyl)-4-[3-(4-fluorobenzyl)-1,2,4-thiadiazol-5-yl]piperazine] | 6.92 | 64 |
| COc1ccc(S(=O)(=O)N2CCN(c3nc(Cc4cccc(OC)c4)ns3)CC2)cc1 [compound 53, 1-[4-methoxyphenylsulfonyl]-4-[3-(3-methoxybenzyl)-1,2,4-thiadiazol-5-yl]piperazine] | 8.85 | 83 |
| CC(C)(C)c1ccc(C(=O)N2CCN(c3nc(Cc4ccc(F)cc4)ns3)CC2)cc1 [compound 180, 1-(4-tert-butylbenzoyl)-4-[3-(4-fluorobenzyl)-1,2,4-thiadiazol-5-yl]piperazine] | – | 62 |
| O=S(=O)(Cc1ccccc1)N1CCN(c2nc(Cc3ccc(Cl)cc3)ns2)CC1 [compound 76, 1-(benzylsulfonyl)-4-[3-(4-chlorobenzyl)-1,2,4-thiadiazol-5-yl]piperazine] | – | 40 |
| COc1cc(NC(=O)N2CCN(c3nc(Cc4ccc(F)cc4)ns3)CC2C)cc(OC)c1 (stereo not drawn) [compound 29, N-(3,5-dimethoxyphenyl)-4-[3-(4-fluorobenzyl)-1,2,4-thiadiazol-5-yl]-2-methylpiperazine-1-carboxamide] | – | 51 |
| O=S(=O)(c1ccc(F)cc1)N1CCN(c2nc(Cc3ccc(Cl)cc3)ns2)CC1 [compound 33, 1-[4-fluorophenylsulfonyl]-4-[3-(4-chlorobenzyl)-1,2,4-thiadiazol-5-yl]piperazine] | 8.55 | 53 |
| Cc1ccc(C(=O)N2CCCN(c3nc(Cc4ccc(F)cc4)ns3)CC2)cc1 [compound 190, 1-(4-methylbenzoyl)-4-[3-(4-fluorobenzyl)-1,2,4-thiadiazol-5-yl]-1,4-diazepane] | 5.56 | 87 |
| CCCCCc1ccc(C(=O)N2CCN(c3nc(Cc4ccc(C)cc4)ns3)CC2C)cc1 (stereo not drawn) [compound 134, 1-(4-pentylbenzoyl)-4-[3-(4-methylbenzyl)-1,2,4-thiadiazol-5-yl]-2-methylpiperazine] | 6.52 | 75 |
| O=C(NCCN1CCN(c2nc(Cc3ccc(F)cc3)ns2)CC1)c1ccccc1 [compound 104, N-{2-[4-[3-(4-fluorobenzyl)-1,2,4-thiadiazol-5-yl]piperazin-1-yl]ethyl}benzamide] | 5.42 | 65 |
| CC1CN(c2nc(Cc3ccc(F)cc3)ns2)CCN1S(=O)(=O)c1cccc(C(F)(F)F)c1 (stereo not drawn) [compound 46, 1-[3-trifluorophenylsulfonyl]-4-[3-(4-fluorobenzyl)-1,2,4-thiadiazol-5-yl]-2-methylpiperazine] | 5.87 | 64 |
| CCC(C(=O)NCCN1CCN(c2nc(Cc3ccc(F)cc3)ns2)CC1)c1ccccc1 (stereo not drawn) [compound 111, 2-phenyl-N-{2-[4-[3-(4-fluorobenzyl)-1,2,4-thiadiazol-5-yl]piperazin-1-yl]ethyl}butanamide] | 5.75 | 79 |
| Cc1ccc(Cc2nsc(N3CCN(S(=O)(=O)Cc4ccccc4)CC3)n2)cc1 [compound 77, 1-(benzylsulfonyl)-4-[3-(4-methylbenzyl)-1,2,4-thiadiazol-5-yl]piperazine] | – | 81 |
| CCCCS(=O)(=O)N1CCN(c2nc(Cc3ccc(Cl)cc3)ns2)CC1 [compound 81, 1-(butylsulfonyl)-4-[3-(4-chlorobenzyl)-1,2,4-thiadiazol-5-yl]piperazine] | 6.46 | 80 |
| O=C(c1cccc(Cl)c1)N1CCN(c2nc(Cc3ccc(F)cc3)ns2)CC1 [compound 138, 1-(3-chlorobenzoyl)-4-[3-(4-fluorobenzyl)-1,2,4-thiadiazol-5-yl]piperazine] | 6.44 | 81 |
| Cc1ccc(Cc2nsc(N3CCN(S(=O)(=O)C(C)C)CC3)n2)cc1 [compound 85, 1-(isopropylsulfonyl)-4-[3-(4-methylbenzyl)-1,2,4-thiadiazol-5-yl]piperazine] | 5.44 | 69 |
| CC1CN(c2nc(Cc3ccc(F)cc3)ns2)CCN1C(=O)c1cccc(Br)c1 (stereo not drawn) [compound 142, 1-(3-bromobenzoyl)-4-[3-(4-fluorobenzyl)-1,2,4-thiadiazol-5-yl]-2-methylpiperazine] | 6.30 | 72 |
| Cc1ccc(Cc2nsc(N3CCN(C(=O)c4cccc(F)c4)CC3)n2)cc1 [compound 162, 1-(3-flurorbenzoyl)-4-[3-(4-methylbenzyl)-1,2,4-thiadiazol-5-yl]piperazine] | 5.47 | 101 |
| CC1CN(c2nc(Cc3ccc(F)cc3)ns2)CCN1C(=O)c1ccccc1Cl (stereo not drawn) [compound 166, 1-(2-chlorobenzoyl)-4-[3-(4-fluorobenzyl)-1,2,4-thiadiazol-5-yl]-2-methylpiperazine] | – | 123 |
